These results are taken from PMC4569258.

For one data set, the system named is CYP3A4 protein. The note with it: HH59, HH61, HH63; 48 h.
The target of data set [1] is T1, glucocorticoid receptor (GR) (Homo sapiens, UniProt P04150).
T1 sequence (P04150 1-777): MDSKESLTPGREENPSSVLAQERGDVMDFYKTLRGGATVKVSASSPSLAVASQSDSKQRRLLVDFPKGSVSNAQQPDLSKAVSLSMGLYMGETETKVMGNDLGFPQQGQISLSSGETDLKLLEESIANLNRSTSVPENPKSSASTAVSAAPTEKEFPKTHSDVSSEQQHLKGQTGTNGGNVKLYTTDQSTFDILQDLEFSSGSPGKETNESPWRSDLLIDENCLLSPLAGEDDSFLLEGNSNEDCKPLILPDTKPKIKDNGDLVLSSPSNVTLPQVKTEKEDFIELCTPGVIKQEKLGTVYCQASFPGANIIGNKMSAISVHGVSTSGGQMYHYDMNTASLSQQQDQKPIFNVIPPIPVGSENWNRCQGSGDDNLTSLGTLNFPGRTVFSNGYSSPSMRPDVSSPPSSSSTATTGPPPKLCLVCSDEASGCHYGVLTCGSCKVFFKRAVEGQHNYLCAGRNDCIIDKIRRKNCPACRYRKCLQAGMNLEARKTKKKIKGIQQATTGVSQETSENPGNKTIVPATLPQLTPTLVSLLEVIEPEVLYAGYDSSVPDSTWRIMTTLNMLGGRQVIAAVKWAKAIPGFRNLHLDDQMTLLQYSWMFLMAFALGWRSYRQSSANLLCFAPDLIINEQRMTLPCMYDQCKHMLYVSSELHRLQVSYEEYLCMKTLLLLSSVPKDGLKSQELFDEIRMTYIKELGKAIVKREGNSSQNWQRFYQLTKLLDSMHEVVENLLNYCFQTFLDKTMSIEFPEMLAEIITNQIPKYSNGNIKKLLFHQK
Kind of data set: GR gene reporter assay in AZ-GR cells. The class given is cell-based. The note with it: antagonist mode, 24 h. The method, then: Transcriptional activity of GR was assessed in human gene reporter cell line AZ-GR incubated for 24 h with tested compounds. […] The vehicle was DMSO (0.1% v/v). […] Treatments were performed in triplicates.
In general terms: A reporter such as luciferase makes a cellular process visible.

Data set [2] concerns the target T2, aryl hydrocarbon receptor (AhR) (Homo sapiens, UniProt P35869).
T2 sequence (P35869 11-848): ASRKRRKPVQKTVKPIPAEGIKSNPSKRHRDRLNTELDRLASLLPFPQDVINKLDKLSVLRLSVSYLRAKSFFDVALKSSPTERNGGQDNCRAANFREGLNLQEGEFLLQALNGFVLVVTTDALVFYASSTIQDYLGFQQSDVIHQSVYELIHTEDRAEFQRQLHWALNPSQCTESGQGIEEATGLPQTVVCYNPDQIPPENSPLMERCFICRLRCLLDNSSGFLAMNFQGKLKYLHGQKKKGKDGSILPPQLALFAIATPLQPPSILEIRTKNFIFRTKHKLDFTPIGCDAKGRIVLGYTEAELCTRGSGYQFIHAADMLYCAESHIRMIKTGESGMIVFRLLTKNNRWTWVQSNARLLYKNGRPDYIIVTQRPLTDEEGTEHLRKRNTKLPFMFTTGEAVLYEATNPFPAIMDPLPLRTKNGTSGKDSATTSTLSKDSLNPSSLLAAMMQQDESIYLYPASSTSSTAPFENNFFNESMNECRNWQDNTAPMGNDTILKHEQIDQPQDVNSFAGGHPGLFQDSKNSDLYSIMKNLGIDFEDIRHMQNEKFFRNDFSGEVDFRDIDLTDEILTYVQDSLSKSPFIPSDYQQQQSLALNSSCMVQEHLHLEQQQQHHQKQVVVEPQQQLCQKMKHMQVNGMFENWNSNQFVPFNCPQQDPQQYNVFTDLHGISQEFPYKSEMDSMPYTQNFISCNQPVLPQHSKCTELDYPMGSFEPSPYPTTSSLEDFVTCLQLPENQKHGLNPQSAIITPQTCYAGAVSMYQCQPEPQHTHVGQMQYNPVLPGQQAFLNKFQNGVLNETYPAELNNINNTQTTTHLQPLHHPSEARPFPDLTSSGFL
Briefly: cell-based.
Experimental: (§3) A stably transfected gene reporter cell line AZ-AHR, derived from human hepatoma HepG2 cells transfected with a construct containing several AhR binding sites upstream of a luciferase reporter gene, was used for assessment of AhR transcriptional activity [20].
(§4) Transcriptional activity of AhR was assessed in human gene reporter cell line AZ-AHR incubated for 24 h with tested compounds.
(§5) AZ-AHR cells were seeded in 96-well plates and stabilized for 16 h and then incubated for 24 h with enantiopure forms of atorvastatin, rosuvastatin and fluvastatin in concentration ranging from 10^−10 M to 10^−4 M in the absence (agonist mode–upper panels) or presence (antagonist mode–lower panels) of dioxin (TCDD; 5 nM). The vehicle was DMSO (0.1% v/v). After the treatments, cells were lysed and luciferase activity was measured. Treatments were performed in triplicates. Data are expressed as a fold induction of luciferase activity over control cells (agonist mode) or as a percentage of maximal activation attained by TCDD (antagonist mode). The values of EC50 and IC50 from n independent cell passages were calculated where appropriate and the average values are indicated in plots. Representative gene reporter assays are shown.

Data set [3] has as its target T2, aryl hydrocarbon receptor (AhR). Kind of data set: AhR gene reporter assay in AZ-AHR cells. The note with it: 24 h; for IC50: AhR antagonist IC50, antagonist mode, in presence of TCDD 5 nM.
Experimental: as §3, §4, §5
A further data set deals with CYP2A6 mRNA. To be noted: HH59, HH61, HH63; 24 h; 1, 10, 30 μM.
The target in data set [4] is T3, pregnane X receptor (PXR) (Homo sapiens, UniProt O75469).
T3 sequence (O75469 1-434): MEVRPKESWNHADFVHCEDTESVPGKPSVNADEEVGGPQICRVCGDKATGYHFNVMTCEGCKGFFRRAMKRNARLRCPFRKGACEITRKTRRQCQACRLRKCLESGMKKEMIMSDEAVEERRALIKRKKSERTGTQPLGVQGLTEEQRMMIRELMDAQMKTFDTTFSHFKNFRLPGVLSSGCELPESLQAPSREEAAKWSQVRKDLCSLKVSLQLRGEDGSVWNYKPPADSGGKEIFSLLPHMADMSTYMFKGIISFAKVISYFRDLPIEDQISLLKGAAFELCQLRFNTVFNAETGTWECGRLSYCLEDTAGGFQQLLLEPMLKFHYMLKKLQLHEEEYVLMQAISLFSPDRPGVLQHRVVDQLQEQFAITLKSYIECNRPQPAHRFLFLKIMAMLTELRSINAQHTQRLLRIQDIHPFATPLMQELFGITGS

A short description of data set [5]: MTT cytotoxicity test in AZ-AHR cells. The data set is classed as cell-based. To be noted: human. How it is done:
(§1) Prior to gene reporter assays, we examined the cytotoxicity of tested compounds in AZ-AHR, AZ-GR and LS180 cell lines. For this purpose, the cells were incubated for 24 h with individual enantiomers of atorvastatin, fluvastatin and rosuvastatin at concentrations ranging from 100 pM to 100 μM. The vehicle was DMSO (0.1% v/v). After the treatment, a conventional MTT test was performed and the values of IC50 were calculated.
(§2) Fig 2 Cytotoxicity of statin enantiomers in human cancer cell lines. […] After the treatment, a conventional MTT test was performed and absorbance was measured at 540 nm. Treatments were performed in triplicates.
In general terms: Tetrazolium assays rely on reduction of a dye to a coloured formazan, in cell work by metabolically active cells.

The subject of a further data set is CYP2C9. Also noted: method as in PMID 8737761. The note with it: ratio to (+)3R,5S-fluvastatin; cited from earlier work.
The nature of data set [6]: MTT cytotoxicity test in LS180 cells. The class given is cell-based. The note with it: human, LS180 colon adenocarcinoma cells. How it is done:
as §1, §2

The nature of data set [7]: MTT cytotoxicity test in AZ-GR cells. The data set is classed as cell-based. The note with it: human, AZ-GR cells (HeLa-derived GR luciferase reporter cell line). How it is done: as §1, §2
On the set-up of data set [8]: method as in PMID 19033449, PMID 16480934. The note with it: humans, ratio to (+)3R,5S-fluvastatin; cited from earlier work.

“Also recorded” adds a separate entry of the source.

Experimental for CYP2A6 mRNA: (§6) Cells were cultured in serum-free medium.
Measurements were performed in triplicates.
Experimental for CYP3A4 protein: as §6
Total protein extracts were prepared from cells cultured on 6-well plates. Cells were washed twice with ice-cold PBS and scraped into 1 ml of PBS. The suspension was centrifuged (4500 rpm/5 min/4°C) and the pellet was resuspended in 150 μl of ice-cold lysis buffer (150 mM NaCl; 10 mM Tris pH 7.2; 0.1% (w/v) SDS; anti-protease cocktail, 1% (v/v) Triton X-100; anti-phosphatase cocktail, 1% (v/v) sodium deoxycholate; 5 mM EDTA). The mixture was vortexed and incubated for 10 min on ice and then centrifuged (15000 rpm/13 min/4°C). Supernatant was collected and the protein content was determined by the Bradford reagent.
All reagents used for running the simple western by Sally Sue ^TM were obtained from ProteinSimple (San Jose, California) and prepared according to manufacturer’s recommendations (http://www.proteinsimple.com/sally_sue.html). […] Antibody diluent, goat anti-rabbit secondary antibody, and goat anti-mouse secondary antibody were purchased from ProteinSimple. The capillaries, containing a proprietary UV-activated chemical linked reagent and 384-well plates were obtained from ProteinSimple. […] The resulting chemiluminescent signal was detected and quantified by the Compass Software version 2.6.5.0 (ProteinSimple). For quantitative data analysis, the CYPs signals were normalized to β-actin as a loading control.

In the case of `CC(C)c1nc(N(C)S(C)(=O)=O)nc(-c2ccc(F)cc2)c1C=CC(O)CC(O)CC(=O)O` (centres unmarked) [3R5S-rosuvastatin], in the data set with CYP3A4 protein, the “induction of CYP3A4 protein, in words” value was “significant induction of CYP3A4 protein”. Also, in data set [1] (DEX 100 nM), the “effect on dexamethasone-inducible transcriptional activity of GR, in words” value is reported as “decreased”. Further, the IC50 in [1] (in presence of DEX 100 nM) came to 89.7 ± 12.6 µM; in data set [3], 53.5 ± 60.4 µM. Further, in data set [2], the EC50 was > 100 µM. Moreover, the “effect on TCDD-inducible transcriptional activity of AhR, in words” value in data set [3] (antagonist mode, TCDD 5 nM) is given as “dose-dependently inhibited”. Also, in the data set on CYP2A6 mRNA, the “induction of CYP2A6 mRNA, in words” value was “weak increase of CYP2A6 mRNA in culture HH61; also recorded: induced CYP2A6 mRNA”. For the same molecule, the “effect on rifampicin-inducible PXR transcriptional activity, in words” value in [4] (antagonist mode, RIF 10 μM, 24 h) is on record as “inverse U-shaped curve”.
For the molecule `CC(C)n1c(C=CC(O)CC(O)CC(=O)O)c(-c2ccc(F)cc2)c2ccccc21` (centres unmarked) [3S5R-fluvastatin, 3S5R- fluvastatin], the EC50 in data set [2] came out at 14.4 ± 4.2 µM. In addition, the IC50 at 24 h in data set [5], in data set [6] and in data set [7] was > 100 µM in each case. Further, the “Ki values of CYP2C9 inhibition compared to (+)3R,5S-fluvastatin” value in the data set on CYP2C9 is listed as “four to five times higher”. For the same molecule, the IC50 in [3] is > 100 µM. Besides, the “effect on AhR-dependent luciferase activity (agonist mode), in words” value in data set [3] (agonist mode) is given as “slightly increased luciferase activity”. Moreover, the “efficacy: average induction of PXR luciferase activity” value in data set [4] (100 μM concentration, agonist mode) is “approx. 5 fold”. Moreover, the “AUC value compared to (+)3R,5S-fluvastatin” value in data set [8] is 1.8 times.

In general, IC50 refers to the concentration that inhibits the measured activity by half. The term EC50 denotes the concentration that produces a half-maximal response.
